# In patent US7456165B2, “HCV NS5B inhibitors” (Bristol-Myers Squibb Company, priority 2006, dated 2008):
# pEC50, pIC50: −log10 of the molar value.
# Legend:
# [1] = tested on: HCV replicon cells; test: HCV replicon FRET assay; format: cell-based; settings: Hepatitis C virus
# Excerpt: FRET Assay Preparation. To perform the HCV FRET screening assay, 96-well cell culture plates were used. The FRET peptide (Anaspec, Inc.) (Taliani et al., Anal Biochem. 1996, 240, 60-67) contains a fluorescence donor, EDANS, near one end of the peptide and an acceptor, DABCYL, near the other end. The fluorescence of the peptide is quenched by […] resonance energy transfer (RET) between the donor and the acceptor, but as the NS3 protease cleaves the peptide the products are released from RET quenching and the fluorescence of the donor becomes apparent. The assay reagent was made as follows: 5× cell Luciferase cell culture lysis reagent from Promega (#E153A) diluted to 1× with dH2O, NaCl added to 150 mM final, the FRET peptide diluted to 20 μM final from a 2 mM stock.
# To prepare plates, HCV replicon cells, with or without a Renilla luciferase reporter gene, were trypsinized and placed into each well of a 96-well plate with titrated test compounds added in columns 3 through 12; columns 1 and 2 contained a control compound (HCV protease inhibitor), and the bottom row contained cells without compound. The plates were then placed in a CO2 incubator at 37° C.
# Assays. Subsequent to addition of the test compounds described above (FRET Assay Preparation), at various times the plate was removed and Alamar blue solution (Trek Diagnostics, #00-100) was added per well as a measure of cellular toxicity. After reading in a Cytoflour 4000 instrument (PE Biosystems), plates were rinsed with PBS and then used for FRET assay by the addition of 30 ul of the FRET peptide assay reagent described above (FRET Assay Preparation) per well. The plate was then placed into the Cytoflour 4000 instrument which had been set to 340 excite/490 emission, automatic mode for 20 cycles and the plate read in a kinetic mode. Typically, the signal to noise using an endpoint analysis after the reads was at least three-fold. Alternatively, after Alamar blue reading, plates were rinsed with PBS, 50 ul of DMEM (high glucose) without phenol red was added and plates were then used for luciferase assay using the Promega Dual-Glo Luciferase Assay System.
# Compound analysis was determined by quantification of the relative HCV replicon inhibition and the relative cytotoxicity values. To calculate cytoxicity values, the average Alamar Blue fluorescence signals from the control wells were set as 100% non-toxic. The individual signals in each of the compound test wells were then divided by the average control signal and multiplied by 100% to determine […]. To calculate the HCV replicon inhibition values, an average background value was obtained from the two wells containing the highest amount of HCV protease inhibitor at the end of the assay period. These numbers were similar to those obtained from naïve Huh-7 cells.
# The background numbers were then subtracted from the average signal obtained from the control wells and this number was used as 100% activity. The individual signals in each of the compound test wells were then divided by the averaged control values after background subtraction and multiplied by 100% to determine percent activity. EC50 values for a protease inhibitor titration were calculated as the concentration which caused a 50% reduction in FRET or luciferase activity. The two numbers generated for the compound plate, percent cytoxicity and percent activity were used to determine compounds of interest for further analysis.
# [2] = molecular target: T1, HCV NS5B (Hepatitis C virus genotype 1b, UniProt Q9WMX2); test: HCV NS5B RdRp enzyme assay (preincubation protocol); format: biochemical; settings: HCV NS5B RdRp genotype 1b
# T1 construct: The protein was expressed with an 18 amino acid C-terminal truncation to enhance the solubility; made in house; host or cells: E. coli BL21(DE3)
# T1 sequence (Q9WMX2 2420-2992): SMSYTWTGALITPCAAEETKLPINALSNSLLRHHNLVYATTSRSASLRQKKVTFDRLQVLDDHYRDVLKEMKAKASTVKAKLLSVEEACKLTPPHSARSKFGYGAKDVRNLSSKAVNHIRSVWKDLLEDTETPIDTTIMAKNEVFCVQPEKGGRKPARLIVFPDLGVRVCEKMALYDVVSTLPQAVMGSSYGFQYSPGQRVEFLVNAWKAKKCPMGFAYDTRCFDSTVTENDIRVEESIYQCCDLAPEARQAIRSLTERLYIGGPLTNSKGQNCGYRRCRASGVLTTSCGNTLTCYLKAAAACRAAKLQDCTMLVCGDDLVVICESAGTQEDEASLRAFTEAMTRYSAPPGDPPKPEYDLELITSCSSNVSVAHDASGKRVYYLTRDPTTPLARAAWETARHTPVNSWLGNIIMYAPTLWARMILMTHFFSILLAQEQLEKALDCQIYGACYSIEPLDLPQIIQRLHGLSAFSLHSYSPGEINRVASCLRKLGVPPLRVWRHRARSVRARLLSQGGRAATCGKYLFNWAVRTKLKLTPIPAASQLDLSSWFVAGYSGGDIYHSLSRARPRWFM
# Protocol: HCV NS5B RdRp cloning, expression, and purification. The cDNA encoding the NS5B protein of HCV, genotype 1b, was cloned into the pET21a expression vector. The protein was expressed with an 18 amino acid C-terminal truncation to enhance the solubility. The E. coli competent cell line BL21(DE3) was used for expression of the protein. Cultures were grown at 37° C. for ˜4 hours until the cultures reached an optical density of 2.0 at 600 nm. The cultures were cooled to 20° C. and induced with 1 mM IPTG. Fresh ampicillin was added to a final concentration of 50 μg/ml and the cells were grown overnight at 20° C.
# Cell pellets (3 L) were lysed for purification to yield 15-24 mgs of purified NS5B. The lysis buffer consisted of 20 mM Tris-HCl, pH 7.4, 500 mM NaCl, 0.5% triton X-100, 1 mM DTT, 1 mM EDTA, 20% glycerol, 0.5 mg/ml lysozyme, 10 mM MgCl2, 15 ug/ml deoxyribonuclease I, and Complete TM protease inhibitor tablets (Roche). After addition of the lysis buffer, frozen cell pellets were resuspended using a tissue homogenizer. To reduce the viscosity of the sample, aliquots of the lysate were sonicated on ice using a microtip attached to a Branson sonicator. The sonicated lysate was centrifuged at 100,000×g for 1 hr at 4° C. and filtered through a 0.2 μm filter unit (Corning).
# The protein was purified using three sequential chromatography steps: Heparin sepharose CL-6B, polyU sepharose 4B, and Hitrap SP sepharose (Pharmacia). The chromatography buffers were identical to the lysis buffer but contained no lysozyme, deoxyribonuclease I, MgCl2 or protease inhibitor and the NaCl concentration of the buffer was adjusted according to the requirements for charging the protein onto the column. Each column was eluted with a NaCl gradient which varied in length from 5-50 column volumes depending on the column type. After the final chromatography step, the resulting purity of the enzyme is >90% based on SDS-PAGE analysis. The enzyme was aliquoted and stored at −80° C.
# Standard HCV NS5B RdRp enzyme assay. HCV RdRp genotype 1b assays were run in a final volume of 60 μl in 96 well plates (Costar 3912 H. The assay buffer is composed of 20 mM Hepes, pH 7.5, 2.5 mM KCl, 2.5 mM MgCl2, 1 mM DTT, 1.6 U RNAse inhibitor (Promega N2515), 0.1 mg/ml BSA (Promega R3961), and 2% glycerol. All compounds were serially diluted (3-fold) in DMSO and diluted further in water such that the final concentration of DMSO in the assay was 2%. HCV RdRp genotype 1b enzyme was used at a final concentration of 28 nM. A polyA template was used at 6 nM, and a biotinylated oligo-dT12 primer was used at 180 nM final concentration. Template was obtained commercially (Amersham 27-4110). Biotinylated primer was prepared by Sigma Genosys. 3H-UTP was used at 0.6 μCi (0.29 μM total UTP). Reactions were initiated by the addition of enzyme, incubated at 30° C. for 60 min, and stopped by adding 25 μl of 50 mM EDTA containing SPA beads (4 μg/μl, Amersham RPNQ 0007 H. Plates were read on a Packard Top Count NXT after >1 hr incubation at room temperature.
# Modified HCV NS5B RdRp enzyme assay. A modified enzyme assay was performed essentially as described for the standard enzyme assay except for the following: The biotinylated oligo dT12 primer was precaptured on streptavidin-coated SPA beads by mixing primer and beads in assay buffer and incubating at room temperature for one hour. Unbound primer was removed after centrifugation. The primer-bound beads were resuspended in 20 mM Hepes buffer, pH 7.5 and used in the assay at final concentrations of 20 nM primer and 0.67 μg/μl beads. Order of addition in the assay: enzyme (14 nM) was added to diluted compound followed by the addition of a mixture of template (0.2 nM), 3H-UTP (0.6 μCi, 0.29 μM), and primer-bound beads, to initiate the reaction; concentrations given are final. Reactions were allowed to proceed for 4 hours at 30° C.
# IC50 values for compounds were determined using seven different [I]. […]
smiles,measurement,setting,value
"O=C(O)c1ccc2c(C3CCCCC3)c3n(c2c1)CC(c1ccoc1)=Cc1ccccc1-3 [Example 45, 13-Cyclohexyl-6-(furan-3-yl)-7H-indolo{2,1-a][2]benzazepine-10-carboxylic Acid]",pEC50,[1],< 6.30
same,pIC50,[2],6.30 to 9.00
"O=C(O)c1ccc2c(C3CCCCC3)c3n(c2c1)CC(c1ncc(CCC(=O)N2CCOCC2)o1)=Cc1ccccc1-3 [Example 36, 13-cyclohexyl-6-[5-[3-(4-morpholinyl)-3-oxopropyl]-2-oxazolyl]-7H-indolo[2,1-a][2]benzazepine-10-carboxylic acid]",pEC50,[1],< 6.30
same,pIC50,[2],6.30 to 9.00
"COc1ccc2c(c1)C=C(c1ncco1)Cn1c-2c(C2CCCCC2)c2ccc(C(=O)O)cc21 [Example 56, 13-Cyclohexyl-3-methoxy-6-(1,3-oxazol-2-yl)-7H-indolo[2,1-a][2]benzazepine-10-carboxylic acid]",pEC50,[1],< 6.30
same,pIC50,[2],6.30 to 9.00
"CS(=O)(=O)Cc1noc(C2=Cc3ccccc3-c3c(C4CCCCC4)c4ccc(C(=O)O)cc4n3C2)n1 [Example 27, 13-cyclohexyl-6-[3-[(methylsulfonyl)methyl]-1,2,4-oxadiazol-5-yl]-7H-indolo[2,1-a][2]benzazepine-10-carboxylic acid]",pEC50,[1],< 6.30
same,pIC50,[2],6.30 to 9.00
"COC(=O)c1ccc2c(C3CCCCC3)c3n(c2c1)CC(c1nnn[nH]1)=Cc1ccccc1-3 [Example 1, 13-cyclohexyl-6-(1H-tetrazol-5-yl)-7H-indolo[2,1-a][2]benzazepine-10-carboxylic acid, methyl ester]",pEC50,[1],< 6.30
same,pIC50,[2],< 6.30
"CN(C)S(=O)(=O)NC(=O)c1ccc2c(C3CCCCC3)c3n(c2c1)CC(c1nc(CC2CCOCC2)n(C)n1)=Cc1ccccc1-3 [Example 43, 13-cyclohexyl-N-[(dimethylamino)sulfonyl]-6-[1-methyl-5-[(tetrahydro-2H-pyran-4-yl)methyl]-1H-1,2,4-triazol-3-yl]-7H-indolo[2,1-a][2]benzazepine-10-carboxamide]",pEC50,[1],< 6.30
same,pIC50,[2],6.30 to 9.00
"O=C(O)c1ccc2c(C3CCCCC3)c3n(c2c1)CC(c1nnn(CC2CC2)n1)=Cc1ccccc1-3 [Example 6, 13-cyclohexyl-6-[2-(cyclopropylmethyl)-2H-tetrazol-5-yl]-7H-indolo[2,1-a][2]benzazepine-10-carboxylic acid]",pEC50,[1],< 6.30
same,pIC50,[2],< 6.30
CCn1nnc(C2=Cc3ccccc3-c3c(C4CCCCC4)c4ccc(C(=O)NS(=O)(=O)N(C)C)cc4n3C2)n1 [Example 4],pEC50,[1],< 6.30
same,pIC50,[2],6.30 to 9.00
"O=C(O)c1ccc2c(C3CCCCC3)c3n(c2c1)C=C(c1nnnn1CC1CCOCC1)Cc1ccccc1-3 [Example 14, 13-cyclohexyl6-[1-[(tetrahydro-2H-pyran-4-yl)methyl]-1H-tetrazol-5-yl]-5H-indolo[2,1-a][2]benzazepine-10-carboxylic acid]",pEC50,[1],< 6.30
same,pIC50,[2],< 6.30
"Cc1noc(C2=Cc3ccccc3-c3c(C4CCCCC4)c4ccc(C(=O)O)cc4n3C2)n1 [Example 24, 13-cyclohexyl-6-(3-methyl-1,2,4-oxadiazol-5-yl)-7H-indolo[2,1-a][2]benzazepine-10-carboxylic acid]",pEC50,[1],< 6.30
same,pIC50,[2],6.30 to 9.00
"O=C(CN1CCOCC1)Nc1nnc(C2=Cc3ccccc3-c3c(C4CCCCC4)c4ccc(C(=O)O)cc4n3C2)o1 [Example 33, 13-cyclohexyl-6-[5-[(4-morpholinylacetyl)amino]-1,3,4-oxadiazol-2-yl]-7H-indolo[2,1-a][2]benzazepine-10-carboxylic acid]",pEC50,[1],< 6.30
same,pIC50,[2],6.30 to 9.00
"Cc1noc(C2=Cc3ccccc3-c3c(C4CCCCC4)c4ccc(C(=O)NS(=O)(=O)N(C)C)cc4n3C2)n1 [Example 25, 13-cyclohexyl-N-[(dimethylamino)sulfonyl]-6-(3-methyl-1,2,4-oxadiazol-5-yl)-7H-indolo[2,1-a][2]benzazepine-10-carboxamide]",pEC50,[1],6.30 to 9.00
same,pIC50,[2],6.30 to 9.00
"O=C(O)c1ccc2c(C3CCCCC3)c3n(c2c1)C=C(c1nnn(CC2CCOCC2)n1)Cc1ccccc1-3 [Example 12, 13-cyclohexyl-6-[2-[(tetrahydro-2H-pyran-4-yl)methyl]-2H-tetrazol-5-yl]-5H-indolo[2,1-a][2]benzazepine-10-carboxylic acid]",pEC50,[1],< 6.30
same,pIC50,[2],< 6.30
"COC(=O)c1ccc2c(C3CCCCC3)c3n(c2c1)CC(c1nnc(CC2CCOCC2)o1)=Cc1ccccc1-3 [Example 39, 13-cyclohexyl-6-[5-[(tetrahydro-2H-pyran-4-yl)methyl]-1,3,4-oxadiazol-2-yl]-7H-indolo[2,1-a][2]benzazepine-10-carboxylic acid, methyl ester]",pEC50,[1],< 6.30
same,pIC50,[2],< 6.30
"O=C(O)c1ccc2c(C3CCCCC3)c3n(c2c1)CC(c1nnn(CC2CCOCC2)n1)=Cc1ccccc1-3 [Example 11, 13-cyclohexyl-6-[2-[(tetrahydro-2H-pyran-4-yl)methyl]-2H-tetrazol-5-yl]-7H-indolo[2,1a][2]benzazepine-10-carboxylic acid]",pEC50,[1],< 6.30
same,pIC50,[2],6.30 to 9.00
"COC(=O)c1ccc2c(C3CCCCC3)c3n(c2c1)CC(c1nc(C)no1)=Cc1ccccc1-3 [Example 23, 13-cyclohexyl-6-(3-methyl-1,2,4-oxadiazol-5-yl)-7H-indolo[2,1-a][2]benzazepine-10-carboxylic acid, methyl ester]",pEC50,[1],< 6.30
same,pIC50,[2],< 6.30
